Patent publication US20220142958A1, “MEDICINAL COMPOSITION HAVING EXCELLENT STABILITY” (EA Pharma Co., Ltd., priority 2019, published 2022)

How the values were obtained:
Format in all cases: in vivo, rat
[1] = Estimated plasma concentration in bilaterally nephrectomized rats; conditions: 48 hours after single intravenous administration at 3 mg/kg
serum iPTH concentration = test: Serum iPTH concentration in bilaterally nephrectomized rats after single intravenous administration
Description: (§1) After quarantine and acclimatization periods of 6 days, fifty-one rats (Crl: CD (SD), male) aged 7 weeks were fed a 100% sucrose diet ad libitum from four days before the surgery. On the day of the surgery, skin incisions were made on the back at the sites of the right and left kidneys under isoflurane anesthesia and the renal capsules were removed to ligate the renal arteries and veins and the ureters using threads before removing the right and left kidneys. A penicillin solution was given upon suturing, and 5 mL of physiological saline was intraperitoneally administered before returning the rats into the breeding cages.
(§2) On the day of administering the test substance, for example, a day after the bilaterally nephrectomy, approximately 100 μL of blood was collected from the tail vein without anesthesia using a capillary tube, which was centrifuged in a high speed refrigerated microcentrifuge (10,000 rpm, 5 min, 4° C.) to separate the serum. Thereafter, the serum Ca concentration was measured with a dri-chemanalyzer (model number: FUJI DRI-CHEM 7000, manufacturer: FUJI FILM Medical Co., Ltd.) to select individuals with a serum Ca concentration of 8.0 mg/dL or more and less than 14.0 mg/dL.
(§3) On a day after the bilaterally nephrectomy, the given doses were calculated based on the weight of the selected animals on that day. Group 1 was given a medium (physiological saline), Groups 2, 3 and 4 were given the Compound A1 solution (0.3, 3 and 30 mg/mL, respectively), and Groups 5, 6, 7 and 8 (5 rats per group) were given the comparative compound (0.3, 1, 3 and 10 mg/mL, respectively), each given a single dose of 1 ml/kg from the tail vein. Prior to the administration (0 hours), and 24 and 48 hours after the administration, approximately 300 μL of blood was collected without anesthesia from the tail vein using capillary tubes for obtaining the serum. The blood for obtaining the serum was left to stand at room temperature, and centrifuged in a high speed refrigerated microcentrifuge (10,000 rpm, 5 min, 4° C.) within a period of 30 minutes to 2 hours after the blood collection to collect the serum.
(§4) Thereafter, the serum Ca was analyzed with COBAS analyzer (Model number: COBAS INTEGRA 400 plus, manufacturer: Roche Diagnostics K.K.), and the remaining serum was stored in an ultra-low freezer (temperature set to −80±15° C.) until the day of iPTH measurement. On the day of iPTH measurement, the serum was melted at room temperature for measurement.
(§5) A 30 mg/ml Compound A1 solution ([…] of Compound A1 dissolved in 10 ml of physiological saline) was diluted with physiological saline to prepare 0.3 mg/ml and […] Compound A1 solutions.
(§6) 149 mg of etelcalcetide (Ac-c(C) arrrar-NH2) TFA salt (WO 2011/014707 A) was prepared to have pH of 6 to 8 with 7 ml of physiological saline and a 0.5N aqueous NaOH solution, and physiological saline was further added thereto to make 10 ml. The prepared 10 mg/ml comparative compound solution was diluted with physiological saline to obtain 0.3 mg/ml and 1 mg/ml comparative compound solutions.

serum Ca concentration = test: Serum Ca concentration in bilaterally nephrectomized rats after single intravenous administration
Description: as §1, §2, §3, §4, §5, §6

[2] = system: bilaterally nephrectomized rats; test: Survival of bilaterally nephrectomized rats after single doses; conditions: for number of rats surviving (of five per group): 48 hours after the administration
Description: as §1, §3

[3] = 0.3 mg/kg single i.v., 24 hours after the administration
[4] = 0.3 mg/kg single i.v., 48 hours after the administration
[5] = 1 mg/kg single i.v., 24 hours after the administration
[6] = 1 mg/kg single i.v., 48 hours after the administration
[7] = 3 mg/kg single i.v., 24 hours after the administration
[8] = 3 mg/kg single i.v., 48 hours after the administration
[9] = 10 mg/kg single i.v., 24 hours after the administration
[10] = 10 mg/kg single i.v., 48 hours after the administration (n=1)
[11] = logistic curve fitting, 48 hours after the administration vs given dose

**Q.** With `CC(=O)N[C@H](CSSC[C@H](N)C(=O)O)C(=O)N[C@H](C)C(=O)N[C@H](CCCNC(=N)N)C(=O)N[C@H](CCCNC(=N)N)C(=O)N[C@H](CCCNC(=N)N)C(=O)N[C@H](C)C(=O)N[C@H](CCCNC(=N)N)C(N)=O` [comparative compound, etelcalcetide] as the molecule, how does the “plasma concentration (estimated)” value [1] read?
**A.** 0.13 µg/mL

**Q.** And the mean serum iPTH concentration (serum iPTH concentration; [3])?
**A.** 122 pg/mL

**Q.** And the mean serum iPTH concentration (serum iPTH concentration; [4])?
**A.** 510 pg/mL

**Q.** And the mean serum iPTH concentration (serum iPTH concentration; [5])?
**A.** 52 pg/mL

**Q.** And the mean serum iPTH concentration (serum iPTH concentration; [6])?
**A.** 280 pg/mL

**Q.** And the mean serum iPTH concentration (serum iPTH concentration; [7])?
**A.** 22 pg/mL

**Q.** What about the mean serum iPTH concentration (serum iPTH concentration; [8]) of the same molecule?
**A.** 41 pg/mL

**Q.** What about the mean serum iPTH concentration (serum iPTH concentration; [9]) of the same molecule?
**A.** 104 pg/mL

**Q.** What about the mean serum iPTH concentration (serum iPTH concentration; [10]) of the same molecule?
**A.** 230 pg/mL

**Q.** What about the “lower limit value of the serum iPTH concentration (simulated)” value (serum iPTH concentration; [11]) of the same molecule?
**A.** 48.18 pg/mL

**Q.** And the “50% effective concentration, EC50 value, for decreasing the serum iPTH concentration” value (serum iPTH concentration; plasma concentration, rats)?
**A.** 0.04 mg/L

**Q.** What about the “decrease of serum iPTH and Ca concentrations” value (serum iPTH concentration; renal failure rat models, during 48 hours after the administration, relation to dose) of the same molecule?
**A.** in a dose-dependent manner

**Q.** And the “mean serum Ca concentration” value (serum Ca concentration; [3])?
**A.** 8.33 mg/dL

**Q.** And the “mean serum Ca concentration” value (serum Ca concentration; [4])?
**A.** 10.44 mg/dL

**Q.** What about the “mean serum Ca concentration” value (serum Ca concentration; [5]) of the same molecule?
**A.** 6.42 mg/dL

**Q.** What about the “mean serum Ca concentration” value (serum Ca concentration; [6]) of the same molecule?
**A.** 7.33 mg/dL

**Q.** What about the “mean serum Ca concentration” value (serum Ca concentration; [7]) of the same molecule?
**A.** 6.82 mg/dL

**Q.** What about the “mean serum Ca concentration” value (serum Ca concentration; [8]) of the same molecule?
**A.** 5.85 mg/dL

**Q.** What about the “mean serum Ca concentration” value (serum Ca concentration; [9]) of the same molecule?
**A.** 6.95 mg/dL

**Q.** And the “mean serum Ca concentration” value (serum Ca concentration; [10])?
**A.** 6.65 mg/dL

**Q.** And the “lower limit value of the serum Ca concentration (simulated)” value (serum Ca concentration; [11])?
**A.** 5.880 mg/dL

**Q.** What about the “number of rats surviving (of five per group)” value ([2]; 3 mg/kg group) of the same molecule?
**A.** four

**Q.** And the “number of rats surviving (of five per group)” value ([2]; 10 mg/kg group)?
**A.** one

**Q.** What about the “number of dead rats” value ([2]; relation to dose) of the same molecule?
**A.** increased in a dose-dependent manner
